Reference: patent publication US5403930A, “Substituted salicylic acids” (Pharmacia AB, priority 1991, dated 1995)
Entries after “also recorded” stand apart in the source; their conditions may differ.

Assays:
Human Granulocytes [1] = experiment: FMLP-induced superoxide production of human granulocytes, 10 μM test compound; format: cell-based; conditions: 10 nM FMLP, 400 000 granulocytes
Method: Effects of Test Compounds on Superoxide Production of Human Granulocytes
(§1) Granulocytes were isolated from the heparinized blood from healthy volunteers. The superoxide assay was essentially that of J. M. McCord and I Fridovich (J. Biol. Chem. 244:6049-6055 (1969)) as modified by G Carlin et al. (Pharmacol. Toxicol 65:121-127 (1989)). The reaction mixture contained (final concentrations) 125 μM cytochrome C in Dulbeccos phosphate buffer with Mg and Ca, 10 μM test compound and 400 000 granulocytes treated with 5 μg/ml of cytochalasin B immediately before the experiment. This reaction mixture was preincubated at 37° C. for 10 minutes, whereafter 10 nM N-formyl-L-methionyl-L-leucyl-L-phenylalanine was added to start the reaction, making the final volume 1 ml. After 10 minutes the tubes were centrifuged and the absorbance of the supernatant at 540 and 550 nm was measured. The superoxide production was expressed as the difference in absorbance at these wavelengths.

human lymphocytes = experiment: Concanavalin A-induced proliferation of human lymphocytes ([3H]-thymidine); format: cell-based; conditions: Lymphocyte, 72 h, 250 μM test compound, 2.5 μg/ml Concanavalin A, 3 days, 2 experiments
Method: (§2) Effect of Compounds on Human Lymphocyte Proliferation Peripheral blood mononuclear cells were isolated from heparinized blood from healthy volunteers by density gradient centrifugation as described by Bain and Pshyk, Transplantation Proc, 4:163-164 (1972). Cell proliferation induced by Concanavalin A was measured in a standard assay such as described in Soderstrom et at., Scand J Immunol, 32:503-516 (1990) using 5% fetal bovine serum in the culture medium. The reaction mixture (final concentrations) consisted of 200 000 cells stimulated with 2.5 μg/ml Concanavalin A and test compounds in a total volume of 0.2 ml. The test compounds were added at the start of the assay, which was run for a total of three days with addition ofradioactive [3H]-thymidine during the last 18 h. Cell bound radioactivity was measured in a liquid scintillation counter.

Human Granulocytes [2] = experiment: FMLP-induced superoxide production of human granulocytes, 100 μM test compound; format: cell-based; conditions: 100 nM FMLP, 600 000 granulocytes
Method: Effects of Test Compounds on Superoxide Production of Human Granulocytes at 100 um Concentration
as §1, with “et at.” for “et al.”, “Ca, 100” for “Ca, 10”, “and 600” for “and 400”, “whereafter 100” for “whereafter 10”

[3] = tested on: human lymphocytes and granulocytes; experiment: Overall activity judged from the results of Examples 40 to 42
Method: as §2, with “Peripheral” for “Effect of Compounds on Human Lymphocyte Proliferation Peripheral”
as §1
as §1, with “et at.” for “et al.”, “Ca, 100” for “Ca, 10”, “and 600” for “and 400”, “whereafter 100” for “whereafter 10”

Row | SMILES | inhibition at 10 µM (Human Granulocytes [1]) [%] | inhibition at 250 µM (human lymphocytes) [%] | inhibition at 100 µM (Human Granulocytes [2]) [%] | Overall activity ranking [3]
1 | O=C(O)c1cc(C#Cc2ccc(S(=O)(=O)Nc3ccccn3)cc2)ccc1O [Example 1, 2-Hydroxy-5-[[4-[(2-pyridinylamino)sulfonyl]phenyl]ethynyl]benzoic acid] | 71 | 95.6 |  | 
2 | Cc1cccnc1NS(=O)(=O)c1ccc(C#Cc2ccc(O)c(C(=O)O)c2)cc1 [Example 2, 2-Hydroxy-5-[[4-[(3-methyl-2-pyridinylamino)-sulfonyl]phenyl]ethynyl]benzoic acid] | 86 | 99.5 | 94.1 | most active; also recorded: considered to be the best one
3 | O=C(O)c1cc(C=Cc2ccc(S(=O)(=O)Nc3ccccn3)cc2)ccc1O [Example 3, 2-Hydroxy-5-[2-[4-[(2-pyridinylamino)sulfonyl]phenyl]ethenyl]benzoic acid] | 55.7 | 73.6 |  | 
4 | Cc1cccnc1NS(=O)(=O)c1ccc(C=Cc2ccc(O)c(C(=O)O)c2)cc1 [Example 4, 2-Hydroxy-5-[2-[4-[(3-methyl-2-pyridinylamino)sulfonyl]phenyl]ethenyl]benzoic acid] | 76.9 | 92.3 |  | 
5 | CC(C)COC(=O)c1cc(C=Cc2ccc(S(=O)(=O)Nc3ccccn3)cc2)ccc1O [Example 5, Isobutyl 2-hydroxy-5-[2-[4-[(2-pyridinylamino)sulfonyl]phenyl]ethenyl]benzoate] | 25.8 |  |  | 
6 | Cc1ccc(NS(=O)(=O)c2ccc(C=Cc3ccc(O)c(C(=O)O)c3)cc2)nc1 [Example 15, 2-Hydroxy-5-[2-[4-[(5-methyl-2-pyridinylamino)sulfonyl]phenyl]ethenyl]benzoic acid] |  | 93.9 |  | 
7 | O=C(O)c1cc(C=Cc2ccc(S(=O)(=O)Nc3ncccc3OCc3ccccc3)cc2)ccc1O [Example 16, 2-Hydroxy-5-[2-[4-[[3-(phenylmethoxy)-2-pyridinylamino]sulfonyl]phenyl]ethenyl]benzoic acid] | 94.6 | 95.4 |  | most active
8 | O=C(O)c1cc(C=Cc2ccc(S(=O)(=O)Nc3ccc(Cl)cn3)cc2)ccc1O [Example 17, 5-[2-[4-[(5-Chloro-2-pyridinylamino)sulfonyl]phenyl]ethenyl]-2hydroxybenzoic acid] | 71.9 | 99.5 |  | most active
9 | Cc1cc(NS(=O)(=O)c2ccc(C=Cc3ccc(O)c(C(=O)O)c3)cc2)no1 [Example 18, 2-Hydroxy-5-[2-[4-[(5-methyl-3-isoxazolyl)aminosulfonyl]phenyl]ethenyl]benzoic acid] | 44.2 | 43.8 |  | 
10 | Cc1ccnc(NS(=O)(=O)c2ccc(C=Cc3ccc(O)c(C(=O)O)c3)cc2)n1 [Example 19, 2-Hydroxy-5-[2-[4-[(4-methyl-2-pyrimidyl)amino-sulfonyl]phenyl]ethenyl]benzoic acid ethanol solvate (2:1)] | 65.9 | 10.3 |  | 
11 | O=C(O)c1cc(C=Cc2ccc(S(=O)(=O)Nc3cnccn3)cc2)ccc1O [Example 20, 2-Hydroxy-5-[2-[4-[(2-pyrazinyl)aminosulfonyl]phenyl]ethenyl]benzoic acid] | 35.1 | 34.8 |  | 
12 | O=C(O)c1cc(C=Cc2ccc(S(=O)(=O)Nc3nc4ccc(F)cc4s3)cc2)ccc1O [Example 21, 2-Hydroxy-5-[2-[4-[[6-fluoro-(2-benzo[d]thiazolyl)]aminosulfonyl]phenyl]ethenyl]benzoic acid] | 93 | 99.8 |  | most active
13 | CN(c1ccccn1)S(=O)(=O)c1ccc(C=Cc2ccc(O)c(C(=O)O)c2)cc1 [Example 22, 2-Hydroxy-5-[2-[4-[N-methyl-(2-pyridinyl)aminosulfonyl]phenyl]ethenyl]benzoic acid] | 85.5 | 99.8 |  | most active
14 | Cc1ccnc(NS(=O)(=O)c2ccc(C=Cc3ccc(O)c(C(=O)O)c3)cc2)c1 [Example 25, 2-Hydroxy-5-[2-[4-[(4-methyl-2-pyridinylamino)sulfonyl]phenyl]-ethenyl]benzoic acid ethanol solvate (2:1)] | 45.5 |  |  | 
15 | O=C(O)c1cc(CCc2ccc(S(=O)(=O)Nc3ccccn3)cc2)ccc1O [Example 26, 2-Hydroxy-5-[2-[4-[(2-pyridinylamino)sulfonyl]phenyl]ethyl]benzoic acid] | 26.8 | 16 |  | 
16 | Cc1cccnc1NS(=O)(=O)c1ccc(CC(=O)c2ccc(O)c(C(=O)O)c2)cc1 [Example 27, 2-Hydroxy-5-[[4-[(3-methyl-2-pyridinylamino)sulfonyl]phenyl]acetyl]benzoic acid] | 32.7 | 37.3 |  | 
17 | O=C(Cc1ccc(S(=O)(=O)Nc2ccccn2)cc1)c1ccc(O)c(C(=O)O)c1 [Example 28] | 17.9 | 15 |  | 
18 | O=C(C=Cc1ccc(S(=O)(=O)Nc2ccccn2)cc1)c1ccc(O)c(C(=O)O)c1 [Example 29, 2-Hydroxy-5-[1-oxo-3-[4-[(2-pyridinylamino)sulfonyl]phenyl]-2-propenyl]benzoic acid] | 33.4 | 66 |  | 
19 | O=C(O)c1cc(C#Cc2ccc(S(=O)(=O)Nc3ncccc3OCc3ccccc3)cc2)ccc1O [Example 31, 2-Hydroxy-5-[[4-[[3-(phenylmethoxy)-2-pyridinylamino]sulfonyl]phenyl]ethynyl]benzoic acid] |  | 100 |  | 
20 | O=C(O)c1cc(C#Cc2ccc(S(=O)(=O)Nc3ccc(Cl)cn3)cc2)ccc1O [Example 32, 5-[[4-[(5-Chloro-2-pyridinylamino)sulfonyl]phenyl]ethynyl]-2hydroxybenzoic acid] |  | 100 |  | 
21 | Cc1ccnc(NS(=O)(=O)c2ccc(C#Cc3ccc(O)c(C(=O)O)c3)cc2)c1 [Example 33, 2-Hydroxy-5-[[4-[(4-methyl-2-pyridinyl)amino-sulfonyl]phenyl]ethynyl]benzoic acid] |  |  | 92.1 | most active
22 | O=C(O)c1cc(C#Cc2ccc(S(=O)(=O)Nc3nc4ccc(F)cc4s3)cc2)ccc1O [Example 34] |  | 98 |  | 
23 | CN(c1ccccn1)S(=O)(=O)c1ccc(C#Cc2ccc(O)c(C(=O)O)c2)cc1 [Example 35, 2-Hydroxy-5-[[4-[N-methyl-(2-pyridinyl)aminosulfonyl]phenyl]ethynyl]benzoicacid] |  | 99 |  | 
24 | Cc1cccnc1NS(=O)(=O)c1ccc(C#Cc2cc(C(=O)O)c(O)cc2F)cc1 [Example 37, 4-Fluoro-2-hydroxy-5-[[4-[(3-methyl-2-pyridinylamino)sulfonyl]phenyl]ethynyl]benzoic acid] |  | 100 | 97.5 | most active
25 | Cc1cccnc1NS(=O)(=O)c1ccc(C=Cc2cc(C(=O)O)c(O)cc2F)cc1 [Example 38, 4-Fluoro-2-hydroxy-5-[2-[4-[(3-methyl-2-pyridinylamino)sulfonyl]phenyl]ethenyl]benzoic acid] |  | 100 | 98.7 | most active
26 | Cc1cccnc1NS(=O)(=O)c1cccc(C#Cc2ccc(O)c(C(=O)O)c2)c1 [Example 39, 2-Hydroxy-5-[[3-[(3-methyl-2-pyridinylamino)sulfonyl]phenyl]ethynyl]benzoicacid] |  | 100 | 93.5 | most active
